Tested on: Crude diglycosidase
Assay: Examination of temperature in the conversion into isoflavone aglycons by diglycosidase using soybean materials
Assay type: biochemical, Penicillium multicolor IAM7153
Parameters: Decomposition efficiency of glycitin family in roasted soy flour / Decomposition efficiency of daidzin family in roasted soy flour / Decomposition efficiency of genistin family in soymilk / Decomposition efficiency of daidzin family in soymilk / Decomposition efficiency of glycitin family in defatted soybean / Decomposition efficiency of daidzin family in defatted soybean: concentration or dose not given beside the values
Method in brief: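 Soybean materials (50 mg) suspended in 20 mM acetate buffer pH 4.0 reacted with crude diglycosidase diluted to 1.88 AU/mL at 80, 65, 55, 45, 37 or 30° C. Reactions stopped with ethanol at 0, 1, 3 and 6 h; isoflavone glycosides and aglycons in supernatant detected by HPLC.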

[1] = 30° C., heat treatment of enzyme no, reaction time 0 h
[2] = 30° C., heat treatment of enzyme no, reaction time 1 h
[3] = 30° C., heat treatment of enzyme no, reaction time 3 h
[4] = 30° C., heat treatment of enzyme no, reaction time 6 h
[5] = 30° C., heat treatment of enzyme yes, reaction time 6 h
[6] = 45° C., heat treatment of enzyme no, reaction time 0 h
[7] = 45° C., heat treatment of enzyme no, reaction time 1 h
[8] = 45° C., heat treatment of enzyme no, reaction time 3 h
[9] = 45° C., heat treatment of enzyme no, reaction time 6 h
[10] = 45° C., heat treatment of enzyme yes, reaction time 6 h
[11] = 45 °C, heat treatment of enzyme: no, 0 h
[12] = 45 °C, heat treatment of enzyme: no, 1 h
[13] = 45 °C, heat treatment of enzyme: no, 3 h
[14] = 45 °C, heat treatment of enzyme: no, 6 h
[15] = 45 °C, heat treatment of enzyme: yes, 6 h
[16] = 55° C., heat treatment of enzyme no, reaction time 0 h
[17] = 55° C., heat treatment of enzyme no, reaction time 1 h
[18] = 55° C., heat treatment of enzyme no, reaction time 3 h
[19] = 55° C., heat treatment of enzyme no, reaction time 6 h
[20] = 55° C., heat treatment of enzyme yes, reaction time 6 h
[21] = 55 °C, heat treatment of enzyme: no, 0 h
[22] = 55 °C, heat treatment of enzyme: no, 1 h

`O=c1c(-c2ccc(O)cc2)coc2cc(O[C@@H]3O[C@H](CO)[C@@H](O)[C@H](O)[C@H]3O)ccc12` [daidzin] was tested, and the “Decomposition efficiency of daidzin family in concentrated soybean protein” value [1] was 52.3%, the “Decomposition efficiency of daidzin family in defatted soybean” value [1] was 42.2% and the “Decomposition efficiency of daidzin family in concentrated soybean protein” value [2] was 29.5%. For the same compound, the “Decomposition efficiency of daidzin family in defatted soybean” value [2] was “not detected”, the “Decomposition efficiency of daidzin family in concentrated soybean protein” value [3] was 13.4% and the “Decomposition efficiency of daidzin family in defatted soybean” value [3] was “not detected”. For the same compound, the “Decomposition efficiency of daidzin family in concentrated soybean protein” value [4] was 4.0%, the “Decomposition efficiency of daidzin family in defatted soybean” value [4] was “not detected” and the “Decomposition efficiency of daidzin family in concentrated soybean protein” value [5] was 54.5%. For the same compound, the “Decomposition efficiency of daidzin family in defatted soybean” value [5] was “not detected”, the “Decomposition efficiency of daidzin family in soymilk” value (“Decomposition efficiency … in soymilk” below) (30 °C, heat treatment of enzyme: no, 0 h) was 34.1% and the “Decomposition efficiency … in soymilk” value (30 °C, heat treatment of enzyme: no, 1 h) was “not detected”. The “Decomposition efficiency … in soymilk” value (30 °C, heat treatment of enzyme: no, 3 h) was “not detected”, the “Decomposition efficiency … in soymilk” value (30 °C, heat treatment of enzyme: no, 6 h) was “not detected” and the “Decomposition efficiency … in soymilk” value (30 °C, heat treatment of enzyme: yes, 6 h) was 34.8%. The “Decomposition efficiency of daidzin family in roasted soy flour” value (35 °C, heat treatment of enzyme: no, 0 h) was 48.6%, the “Decomposition efficiency of daidzin family in roasted soy flour” value (35 °C, heat treatment of enzyme: no, 1 h) was 11.7% and the “Decomposition efficiency of daidzin family in roasted soy flour” value (35 °C, heat treatment of enzyme: no, 3 h) was “not detected”. The “Decomposition efficiency of daidzin family in roasted soy flour” value (35 °C, heat treatment of enzyme: no, 6 h) was “not detected”, the “Decomposition efficiency of daidzin family in roasted soy flour” value (35 °C, heat treatment of enzyme: yes, 6 h) was 50.3% and the “Decomposition efficiency of daidzin family in concentrated soybean protein” value [6] was 52.4%. The “Decomposition efficiency of daidzin family in defatted soybean” value [6] was 40.5%, the “Decomposition efficiency of daidzin family in concentrated soybean protein” value [7] was 10.6% and the “Decomposition efficiency of daidzin family in defatted soybean” value [7] was “not detected”. The “Decomposition efficiency of daidzin family in concentrated soybean protein” value [8] was 9.6%, the “Decomposition efficiency of daidzin family in defatted soybean” value [8] was “not detected” and the “Decomposition efficiency of daidzin family in concentrated soybean protein” value [9] was 1.7%. For the same compound, the “Decomposition efficiency of daidzin family in defatted soybean” value [9] was “not detected”, the “Decomposition efficiency of daidzin family in concentrated soybean protein” value [10] was 94.3% and the “Decomposition efficiency of daidzin family in defatted soybean” value [10] was “not detected”. The “Decomposition efficiency of daidzin family in roasted soy flour” value [11] was 48.6%, the “Decomposition efficiency … in soymilk” value [11] was 33.9% and the “Decomposition efficiency of daidzin family in roasted soy flour” value [12] was 3.6%. The “Decomposition efficiency … in soymilk” value [12] was 6.8%, the “Decomposition efficiency of daidzin family in roasted soy flour” value [13] was 2.7% and the “Decomposition efficiency … in soymilk” value [13] was 6.9%. The “Decomposition efficiency of daidzin family in roasted soy flour” value [14] was 5.4%, the “Decomposition efficiency … in soymilk” value [14] was 6.9% and the “Decomposition efficiency of daidzin family in roasted soy flour” value [15] was 49.4%. For the same compound, the “Decomposition efficiency … in soymilk” value [15] was 36.0%, the “Decomposition efficiency of daidzin family in concentrated soybean protein” value [16] was 52.5% and the “Decomposition efficiency of daidzin family in defatted soybean” value [16] was 42.2%. For the same compound, the “Decomposition efficiency of daidzin family in concentrated soybean protein” value [17] was 1.0%, the “Decomposition efficiency of daidzin family in defatted soybean” value [17] was “not detected” and the “Decomposition efficiency of daidzin family in concentrated soybean protein” value [18] was “not detected”. For the same compound, the “Decomposition efficiency of daidzin family in defatted soybean” value [18] was “not detected”, the “Decomposition efficiency of daidzin family in concentrated soybean protein” value [19] was “not detected” and the “Decomposition efficiency of daidzin family in defatted soybean” value [19] was “not detected”. The “Decomposition efficiency of daidzin family in concentrated soybean protein” value [20] was 54.6%, the “Decomposition efficiency of daidzin family in defatted soybean” value [20] was “not detected” and the “Decomposition efficiency of daidzin family in roasted soy flour” value [21] was 48.8%. The “Decomposition efficiency … in soymilk” value [21] was 34.2%, the “Decomposition efficiency of daidzin family in roasted soy flour” value [22] was “not detected” and the “Decomposition efficiency … in soymilk” value [22] was “not detected”.
